Experimental data reported in PubChem BioAssay (NCI).
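Assay format: 96-well plates, 48-hour exposure. GI50 = concentration required for 50% inhibition of growth. Definition used: TGI = concentration required for complete inhibition of growth.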

How the values were obtained:
Experiment in all cases: NCI tumour cell line growth inhibition, 48 h
786-0 renal = tested on: 786-0 renal
A498 renal = tested on: A498 renal
A549 NSCLC = tested on: A549 NSCLC
ACHN renal = tested on: ACHN renal
BT-549 breast = tested on: BT-549 breast
CAKI-1 renal = tested on: CAKI-1 renal
CCRF-CEM leukemia = tested on: CCRF-CEM leukemia
COLO 205 colon = tested on: COLO 205 colon
DU-145 prostate = tested on: DU-145 prostate
HCC-2998 colon = tested on: HCC-2998 colon
HCT-116 colon = tested on: HCT-116 colon
HCT-15 colon = tested on: HCT-15 colon
HL-60(TB) leukemia = tested on: HL-60(TB) leukemia
HOP-62 NSCLC = tested on: HOP-62 NSCLC
HOP-92 NSCLC = tested on: HOP-92 NSCLC
HS 578T breast = tested on: HS 578T breast
HT29 colon = tested on: HT29 colon
IGROV1 ovarian = tested on: IGROV1 ovarian
K-562 leukemia = tested on: K-562 leukemia
KM12 colon = tested on: KM12 colon
LOX IMVI melanoma = tested on: LOX IMVI melanoma
M14 melanoma = tested on: M14 melanoma
MALME-3M melanoma = tested on: MALME-3M melanoma
MCF7 breast = tested on: MCF7 breast
MDA-MB-231 breast = tested on: MDA-MB-231 breast
MDA-MB-435 = tested on: MDA-MB-435
MDA-N = tested on: MDA-N
MOLT-4 leukemia = tested on: MOLT-4 leukemia
NCI-H226 lung = tested on: NCI-H226 lung
NCI-H23 lung = tested on: NCI-H23 lung
NCI-H460 lung = tested on: NCI-H460 lung
NCI-H522 lung = tested on: NCI-H522 lung
NCI/ADR-RES ovarian = tested on: NCI/ADR-RES ovarian
OVCAR-3 ovarian = tested on: OVCAR-3 ovarian
OVCAR-4 ovarian = tested on: OVCAR-4 ovarian
OVCAR-5 ovarian = tested on: OVCAR-5 ovarian
OVCAR-8 ovarian = tested on: OVCAR-8 ovarian
PC-3 prostate = tested on: PC-3 prostate
RPMI-8226 leukemia = tested on: RPMI-8226 leukemia
RXF 393 renal = tested on: RXF 393 renal
SF-268 CNS = tested on: SF-268 CNS
SF-295 CNS = tested on: SF-295 CNS
SF-539 CNS = tested on: SF-539 CNS
SK-MEL-2 melanoma = tested on: SK-MEL-2 melanoma
SK-MEL-28 melanoma = tested on: SK-MEL-28 melanoma
SK-OV-3 ovarian = tested on: SK-OV-3 ovarian
SN12C renal = tested on: SN12C renal
SNB-19 CNS = tested on: SNB-19 CNS
SNB-75 CNS = tested on: SNB-75 CNS
SW-620 colon = tested on: SW-620 colon
T-47D breast = tested on: T-47D breast
TK-10 renal = tested on: TK-10 renal
U251 CNS = tested on: U251 CNS
UACC-257 melanoma = tested on: UACC-257 melanoma
UACC-62 melanoma = tested on: UACC-62 melanoma
UO-31 renal = tested on: UO-31 renal

## COc1cc(C(=O)N2CCN(C(=O)c3cc(OC)c(OC)c(OC)c3)C2=S)cc(OC)c1OC
786-0 renal
  GI50: 11.4 µM
  TGI: 26.8 µM
A498 renal
  GI50: 17.7 µM
  TGI: 33 µM
A549 NSCLC
  GI50: 19.9 µM
  TGI: 56.7 µM
ACHN renal
  GI50: 17.8 µM
  TGI: 34.5 µM
BT-549 breast
  GI50: 17.4 µM
  TGI: 34.1 µM
CAKI-1 renal
  GI50: 12.3 µM
  TGI: 24.7 µM
CCRF-CEM leukemia
  GI50: 12.2 µM
  TGI: 34.1 µM
COLO 205 colon
  GI50: 19.4 µM
  TGI: 40.4 µM
DU-145 prostate
  GI50: 13.6 µM
  TGI: 27.7 µM
HCC-2998 colon
  GI50: 19 µM
  TGI: 40 µM
HCT-116 colon
  GI50: 18.2 µM
  TGI: 33.1 µM
HCT-15 colon
  GI50: 20.2 µM
  TGI: 47.4 µM
HL-60(TB) leukemia
  GI50: 16 µM
  TGI: 34.3 µM
HOP-62 NSCLC
  GI50: 15.2 µM
  TGI: 38.9 µM
HOP-92 NSCLC
  GI50: 16.1 µM
  TGI: 34.3 µM
HS 578T breast
  GI50: 24.7 µM
  TGI: > 100 µM
HT29 colon
  GI50: 22.7 µM
  TGI: 53.2 µM
IGROV1 ovarian
  GI50: 24.7 µM
  TGI: 56.6 µM
K-562 leukemia
  GI50: 24.9 µM
  TGI: > 100 µM
KM12 colon
  GI50: 14.2 µM
  TGI: 39.7 µM
LOX IMVI melanoma
  GI50: 15.4 µM
  TGI: 30.7 µM
M14 melanoma
  GI50: 16.8 µM
  TGI: 34 µM
MALME-3M melanoma
  GI50: 13.4 µM
  TGI: 27 µM
MCF7 breast
  GI50: 5.23 µM
  TGI: 27.6 µM
MDA-MB-231 breast
  GI50: 16.7 µM
  TGI: 36 µM
MDA-MB-435
  GI50: 13.1 µM
  TGI: 28.8 µM
MDA-N
  GI50: 15 µM
  TGI: 33.9 µM
MOLT-4 leukemia
  GI50: 23.5 µM
  TGI: 58.4 µM
NCI-H226 lung
  GI50: 19.5 µM
  TGI: 39.1 µM
NCI-H23 lung
  GI50: 18.7 µM
  TGI: 37.5 µM
NCI-H460 lung
  GI50: 27.2 µM
  TGI: 73.6 µM
NCI-H522 lung
  GI50: 3.67 µM
  TGI: 16.3 µM
NCI/ADR-RES ovarian
  GI50: 26.8 µM
  TGI: 74.5 µM
OVCAR-3 ovarian
  GI50: 15.2 µM
  TGI: 29.6 µM
OVCAR-4 ovarian
  GI50: 16.9 µM
  TGI: 50.1 µM
OVCAR-5 ovarian
  GI50: 23.2 µM
  TGI: 57.7 µM
OVCAR-8 ovarian
  GI50: 21.9 µM
  TGI: 45.9 µM
PC-3 prostate
  GI50: 15 µM
  TGI: 32.2 µM
RPMI-8226 leukemia
  TGI: 26.1 µM
RXF 393 renal
  GI50: 14.3 µM
  TGI: 28.1 µM
SF-268 CNS
  GI50: 11.5 µM
  TGI: 26.1 µM
SF-295 CNS
  GI50: 19 µM
  TGI: 43.7 µM
SF-539 CNS
  GI50: 14.5 µM
  TGI: 30.2 µM
SK-MEL-2 melanoma
  GI50: 16.3 µM
  TGI: 34.6 µM
SK-MEL-28 melanoma
  GI50: 17.2 µM
  TGI: 35.5 µM
SK-OV-3 ovarian
  GI50: 20.2 µM
  TGI: 52.7 µM
SN12C renal
  GI50: 17.1 µM
  TGI: 35.7 µM
SNB-19 CNS
  GI50: 18.5 µM
  TGI: 38.1 µM
SNB-75 CNS
  GI50: 7.1 µM
  TGI: 21.6 µM
SW-620 colon
  GI50: 20.3 µM
  TGI: 46.5 µM
T-47D breast
  GI50: 13.1 µM
  TGI: 40.3 µM
TK-10 renal
  GI50: 17 µM
  TGI: 37.3 µM
U251 CNS
  GI50: 16.3 µM
  TGI: 34.4 µM
UACC-257 melanoma
  GI50: 21.7 µM
  TGI: 43.9 µM
UACC-62 melanoma
  GI50: 14.9 µM
  TGI: 29.9 µM
UO-31 renal
  TGI: 12.8 µM
